This is an account of results in patent US20240116985A1, “STAPLED PEPTIDES AND METHODS THEREOF” (priority 2020, published 2024).

The structures appear in SMILES notation.

For test [1], the target named is T1, full-length beta-Catenin (Uniprot ID P35222) (Homo sapiens, UniProt P35222).
T1 construct: 10 nM full-length beta-Catenin (Uniprot ID P35222)
T1 sequence (P35222 1-781): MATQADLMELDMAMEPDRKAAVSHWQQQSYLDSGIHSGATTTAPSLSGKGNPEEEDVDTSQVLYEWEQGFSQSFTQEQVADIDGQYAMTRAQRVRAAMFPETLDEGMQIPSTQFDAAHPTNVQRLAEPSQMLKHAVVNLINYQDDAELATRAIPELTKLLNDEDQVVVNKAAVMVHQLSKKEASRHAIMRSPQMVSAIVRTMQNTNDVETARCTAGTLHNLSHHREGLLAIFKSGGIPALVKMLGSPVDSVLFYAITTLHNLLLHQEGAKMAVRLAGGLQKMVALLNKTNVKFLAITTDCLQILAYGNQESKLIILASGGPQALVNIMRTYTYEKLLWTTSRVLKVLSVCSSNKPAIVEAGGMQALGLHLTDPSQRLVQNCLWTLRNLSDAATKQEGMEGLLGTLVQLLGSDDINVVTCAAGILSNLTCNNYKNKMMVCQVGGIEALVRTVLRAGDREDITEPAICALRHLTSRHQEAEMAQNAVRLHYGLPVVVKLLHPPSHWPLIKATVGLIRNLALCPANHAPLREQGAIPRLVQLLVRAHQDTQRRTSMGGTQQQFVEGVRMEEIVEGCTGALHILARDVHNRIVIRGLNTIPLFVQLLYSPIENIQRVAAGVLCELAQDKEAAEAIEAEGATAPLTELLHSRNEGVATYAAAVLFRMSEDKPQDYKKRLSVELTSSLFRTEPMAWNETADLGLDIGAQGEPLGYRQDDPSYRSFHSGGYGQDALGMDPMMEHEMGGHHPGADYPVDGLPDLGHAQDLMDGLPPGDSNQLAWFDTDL
As to the kind of experiment: Fluorescence polarization IC50 (beta-catenin / 5FAM-TCF4 10-53 competition). Format: binding. Particulars: fluorescence polarization; read-out: beta-Catenin FP IC50.

For test [2], the target named is T2, beta-catenin/TCF4 engagement (Homo sapiens, UniProt P35222).
T2 construct: expressed in transfected cells; host or cells: HEK293
T2 sequence (P35222 1-781): T1 sequence (P35222 1-781)
Put plainly: Nano-BRET target engagement assay (B-cat-Halo & TCF4-Luc in HEK293 cells). Format: cell-based. Particulars: absolute IC50; read-out: NanoBRET Abs IC50.

For `CC(=O)N1CCC[C@]12CC=CCCCC1(CCCC=CCCCOC(=O)N3CC[C@@](C(=O)N[C@@H](Cc4ccccc4C(F)(F)F)C(=O)N[C@@H](Cc4csc5ccccc45)C(=O)N[C@@H](CO)C(N)=O)(C3)NC(=O)[C@H](Cc3ccccc3)NC(=O)[C@H](Cc3ccccc3)NC(=O)[C@H](C)NC(=O)[C@H](C)NC(=O)[C@H](Cc3ccccc3C(=O)O)NC(=O)[C@H](CC(=O)O)NC1=O)NC(=O)[C@H](CC(C)(C)C)NC(=O)[C@H](CC(=O)O)NC2=O` (stereo partly drawn) [I-1659, Ac-PL3-Asp-Npg-B5-Asp-2COOHF-Ala-Ala-Phe-Phe-PyrS2-2F3MeF-BztA-Ser-NH2], the concentration for half-maximal inhibition (IC50) in test [1] was 108 nM; in test [2] it was 11400 nM.
Take `CC(=O)N1CCC[C@]12CC=CCCCC1(CCCC=CCCCOC(=O)N3CC[C@@](C(=O)N[C@@H](Cc4ccccc4Cl)C(=O)N[C@@H](Cc4csc5ccccc45)C(=O)N[C@@H](CO)C(N)=O)(C3)NC(=O)[C@H](Cc3ccccc3)NC(=O)[C@H](Cc3ccccc3)NC(=O)[C@H](C)NC(=O)[C@H](C)NC(=O)[C@H](Cc3ccccc3C(=O)O)NC(=O)[C@H](CC(=O)O)NC1=O)NC(=O)[C@H](CC(C)(C)C)NC(=O)[C@H](CC(=O)O)NC2=O` (stereo partly drawn) [I-1662, Ac-PL3-Asp-Npg-B5-Asp-2COOHF-Ala-Ala-Phe-Phe-PyrS2-2C1F-BztA-Ser-NH2]: the IC50 turned out to be 69 nM in test [1] and 12000 nM in test [2].
For `CC(=O)N1CCC[C@]12CC=CCCCC1(CCCC=CCCCOC(=O)N3CC[C@@](C(=O)N[C@@H](Cc4ccccc4Cl)C(=O)N[C@@H](Cc4csc5ccccc45)C(=O)N[C@@H](CO)C(N)=O)(C3)NC(=O)[C@H](CC(C)C)NC(=O)[C@H](Cc3ccccc3)NC(=O)[C@H](C)NC(=O)[C@H](C)NC(=O)[C@H](Cc3ccccc3C(=O)O)NC(=O)[C@H](CC(=O)O)NC1=O)NC(=O)[C@H](CC(C)(C)C)NC(=O)[C@H](CC(=O)O)NC2=O` (stereo partly drawn) [I-1663, Ac-PL3-Asp-Npg-B5-Asp-2COOHF-Ala-Ala-Phe-Leu-PyrS2-2C1F-BztA-Ser-NH2] the same measures were 67 nM and 8500 nM.
In the case of `CCNC(=O)[C@H](CCC(N)=O)NC(=O)[C@H](Cc1csc2ccccc12)NC(=O)[C@H](Cc1ccccc1Cl)NC(=O)[C@]12CCN(C1)C(=O)OCCCC=CCCCC1(CCCC=CC[C@]3(CCCN3C(C)=O)C(=O)N[C@@H](CC(=O)O)C(=O)N[C@@H](CC(C)(C)C)C(=O)N1)C(=O)N[C@@H](CC(=O)O)C(=O)N[C@@H](Cc1cccc(C(=O)O)c1)C(=O)N[C@@H](C)C(=O)N[C@@H](C)C(=O)N[C@@H](Cc1ccccc1)C(=O)N[C@@H](CC(C)C)C(=O)N2` (stereo partly drawn) [I-1672, Ac-PL3-Asp-Npg-B5-Asp-3COOHF-Ala-Ala-Phe-Leu-PyrS2-2C1F-BztA-Gln-NHEt], the concentration for half-maximal inhibition (IC50) was 40 nM in test [1] and 7100 nM in test [2].
Consider `CC(=O)N1CCC[C@]12CC=CCCCC1(CCCC=CCCCOC(=O)N3CC[C@@](C(=O)N[C@@H](Cc4ccccc4Cl)C(=O)N[C@@H](Cc4csc5ccccc45)C(=O)N[C@@H](CCC(N)=O)C(=O)N[C@H](CO)Cc4ccccc4)(C3)NC(=O)[C@H](CC(C)C)NC(=O)[C@H](Cc3ccccc3)NC(=O)[C@H](C)NC(=O)[C@H](C)NC(=O)[C@H](Cc3cccc(C(=O)O)c3)NC(=O)[C@H](CC(=O)O)NC1=O)NC(=O)[C@H](CC(C)(C)C)NC(=O)[C@H](CC(=O)O)NC2=O` (stereo partly drawn) [I-1674, Ac-PL3-Asp-Npg-B5-Asp-3COOHF-Ala-Ala-Phe-Leu-PyrS2-2C1F-BztA-Gln-], for which the IC50 in test [1] is 147 nM; in test [2], 18300 nM.
For `CC(=O)N1CCC[C@]12CC=CCCCC1(CCCC=CCCCOC(=O)N3CC[C@@](C(=O)N[C@@H](Cc4ccccc4Cl)C(=O)N[C@@H](Cc4csc5ccccc45)C(=O)N[C@@H](CCC(N)=O)C(=O)N4CCC[C@H]4CO)(C3)NC(=O)[C@H](CC(C)C)NC(=O)[C@H](Cc3ccccc3)NC(=O)[C@H](C)NC(=O)[C@H](C)NC(=O)[C@H](Cc3cccc(C(=O)O)c3)NC(=O)[C@H](CC(=O)O)NC1=O)NC(=O)[C@H](CC(C)(C)C)NC(=O)[C@H](CC(=O)O)NC2=O` (stereo partly drawn) [I-1675, Ac-PL3-Asp-Npg-B5-Asp-3COOHF-Ala-Ala-Phe-Leu-PyrS2-2C1F-BztA-Gln-Proo1], the IC50 in test [1] is 18.5 nM; in test [2], 9700 nM.
Turning to `CCNC(=O)[C@H](CCC(N)=O)NC(=O)[C@H](Cc1csc2ccccc12)NC(=O)[C@H](Cc1ccsc1)NC(=O)[C@]12CCN(C1)C(=O)OCCCC=CCCCC1(CCCC=CC[C@]3(CCCN3C(C)=O)C(=O)N[C@@H](CC(=O)O)C(=O)N[C@@H](CC(C)(C)C)C(=O)N1)C(=O)N[C@@H](CC(=O)O)C(=O)N[C@@H](CN(CC(=O)O)CC(F)(F)F)C(=O)N[C@@H](C)C(=O)N[C@@H](C)C(=O)N[C@@H](Cc1ccccc1)C(=O)N[C@@H](CC(C)C)C(=O)N2` (stereo partly drawn) [I-1678, Ac-PL3-Asp-Npg-B5-Asp-TfeGA-Ala-Ala-Phe-Leu-PyrS2-3Thi-BztA-Gln-NHEt], the values for the IC50 in test [1] and in test [2] were 32 nM and 9700 nM, respectively.
In the case of `CC(=O)N1CCC[C@]12CC=CCCCC1(CCCC=CCCCOC(=O)N3CC[C@@](C(=O)N[C@@H](Cc4ccsc4)C(=O)N[C@@H](Cc4csc5ccccc45)C(=O)N[C@@H](CCC(N)=O)C(=O)N[C@H](CO)Cc4ccccc4)(C3)NC(=O)[C@H](CC(C)C)NC(=O)[C@H](Cc3ccccc3)NC(=O)[C@H](C)NC(=O)[C@H](C)NC(=O)[C@H](CN(CC(=O)O)CC(F)(F)F)NC(=O)[C@H](CC(=O)O)NC1=O)NC(=O)[C@H](CC(C)(C)C)NC(=O)[C@H](CC(=O)O)NC2=O` (stereo partly drawn) [I-1680, Ac-PL3-Asp-Npg-B5-Asp-TfeGA-Ala-Ala-Phe-Leu-PyrS2-3Thi-BztA-Gln-Pheo1], the IC50 in test [1] was found to be 80.5 nM; in test [2], 12500 nM.
For `CC(=O)N1CCC[C@]12CC=CCCCC1(CCCC=CCCCOC(=O)N3CC[C@@](C(=O)N[C@@H](Cc4ccsc4)C(=O)N[C@@H](Cc4csc5ccccc45)C(=O)N[C@@H](CCC(N)=O)C(=O)N4CCC[C@H]4CO)(C3)NC(=O)[C@H](CC(C)C)NC(=O)[C@H](Cc3ccccc3)NC(=O)[C@H](C)NC(=O)[C@H](C)NC(=O)[C@H](CN(CC(=O)O)CC(F)(F)F)NC(=O)[C@H](CC(=O)O)NC1=O)NC(=O)[C@H](CC(C)(C)C)NC(=O)[C@H](CC(=O)O)NC2=O` (stereo partly drawn) [I-1681, Ac-PL3-Asp-Npg-B5-Asp-TfeGA-Ala-Ala-Phe-Leu-PyrS2-3Thi-BztA-Gln-Proo1] the same measures were 18.5 nM and 5400 nM.
In the case of `CC(=O)N1CCC[C@]12CC=CCCCC1(CCCC=CCCCOC(=O)N3CC[C@@](C(=O)N[C@@H](Cc4ccsc4)C(=O)N[C@@H](Cc4csc5ccccc45)C(=O)N[C@@H](CCC(N)=O)C(=O)N[C@H](CO)[C@@H](C)O)(C3)NC(=O)[C@H](CC(C)C)NC(=O)[C@H](Cc3ccccc3)NC(=O)[C@H](C)NC(=O)[C@H](C)NC(=O)[C@H](CN(CC(=O)O)CC(F)(F)F)NC(=O)[C@H](CC(=O)O)NC1=O)NC(=O)[C@H](CC(C)(C)C)NC(=O)[C@H](CC(=O)O)NC2=O` (stereo partly drawn) [I-1683, Ac-PL3-Asp-Npg-B5-Asp-TfeGA-Ala-Ala-Phe-Leu-PyrS2-3Thi-BztA-Gln-Thro1], the IC50 in test [1] is 9 nM; in test [2], 3700 nM.
Taken in the same sequence, the figures for `CC(=O)N1CCC[C@]12CC=CCCCC1(CCCC=CCCCOC(=O)N3CC[C@@](C(=O)N[C@@H](Cc4ccccc4Cl)C(=O)N[C@@H](Cc4csc5ccccc45)C(=O)N[C@@H](CCC(N)=O)C(N)=O)(C3)NC(=O)[C@H](CC(C)C)NC(=O)[C@H](Cc3ccccc3)NC(=O)[C@H](C)NC(=O)C(C)(C)NC(=O)[C@H](Cc3cccc(C(=O)O)c3)NC(=O)[C@H](CC(=O)O)NC1=O)NC(=O)[C@H](CC(C)(C)C)NC(=O)[C@H](CC(=O)O)NC2=O` (stereo partly drawn) [I-1686, Ac-PL3-Asp-Npg-B5-Asp-3COOHF-Aib-Ala-Phe-Leu-PyrS2-2C1F-BztA-Gln-NH2] were 11 nM and 5400 nM.
